Measured values as given in patent US11932652B2, “Pyrrolidinyl urea derivatives and application thereof in TrkA-related diseases” (ZHANGZHOU PIEN TZE HUANG PHARMACEUTICAL CO., LTD., priority 2018, dated 2024).
Values belong to the molecule of their own block, whether it stands above or below them.

Key:
TrkA = molecular target: T1, TrkA (Homo sapiens, UniProt P04629); assay: TrkA enzyme activity test (HTRF); assay type: biochemical; settings: 0.5 nM TrkA kinase, 90 μM ATP, 23° C., 90 minutes
T1 construct: purchased Invitrogen PV4114
T1 sequence (P04629 33-796): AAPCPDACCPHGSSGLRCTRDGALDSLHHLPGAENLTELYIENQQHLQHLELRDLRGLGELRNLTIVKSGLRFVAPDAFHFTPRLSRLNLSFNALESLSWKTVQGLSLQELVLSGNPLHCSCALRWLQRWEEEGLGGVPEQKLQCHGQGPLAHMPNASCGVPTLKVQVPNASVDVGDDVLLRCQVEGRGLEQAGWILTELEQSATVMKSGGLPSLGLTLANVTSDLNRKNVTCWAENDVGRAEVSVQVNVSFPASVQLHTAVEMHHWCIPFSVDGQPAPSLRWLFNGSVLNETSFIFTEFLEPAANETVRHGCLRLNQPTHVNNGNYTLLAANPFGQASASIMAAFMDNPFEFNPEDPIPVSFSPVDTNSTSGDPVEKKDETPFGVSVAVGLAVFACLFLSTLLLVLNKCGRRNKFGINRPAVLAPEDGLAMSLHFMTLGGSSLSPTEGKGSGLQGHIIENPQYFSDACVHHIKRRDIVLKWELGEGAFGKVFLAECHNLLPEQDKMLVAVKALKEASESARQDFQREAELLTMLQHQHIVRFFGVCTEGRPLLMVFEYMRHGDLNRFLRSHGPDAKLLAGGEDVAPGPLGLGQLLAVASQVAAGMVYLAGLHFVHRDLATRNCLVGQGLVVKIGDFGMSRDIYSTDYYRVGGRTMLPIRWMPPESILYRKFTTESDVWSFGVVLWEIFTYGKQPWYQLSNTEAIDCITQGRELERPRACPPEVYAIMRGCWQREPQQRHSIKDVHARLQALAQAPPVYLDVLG
Procedure: 50 mM Hepes (pH 7.5), 5 mM MgCl2 (magnesium chloride), 0.01 mM orthovanadate (sodium vanadate), 1% BSA (bovine serum albumin), 1 mM (dithiothreitol)
This experiment used Cisbio's homogeneous time-resolved fluorescence resonance energy transfer (HTRF® method) for activity test. In the test plate, the enzyme, biotin-labeled peptide substrate, ATP, and test compound were mixed, and incubated for reaction. After the reaction, ethylenediaminetetraacetic acid was added to terminate the reaction; at the same time, Eu-labeled antibody and streptavidin-labeled XL665 were added for reaction and detection. The data were expressed by the readings of the fluorescence signal at 665 nm and 620 nm, where a high ratio of 665 nm/620 nm indicated higher activity, and a low ratio of 665 nm/620 nm indicated inhibition of activity.
1. Dilution of compound: the test compound was 3-fold diluted to prepare a total of 11 concentrations, the concentration was from 10 μM to 0.17 nM in the final system;
2. A 10 μL reaction system with a buffer of 50 mM Hepes (pH 7.5), 5 mM MgCl2, 0.01 mM sodium vanadate, 1% BSA, and 1 mM DTT, and containing 0.5 nM TrkA kinase, 0.3 μM biotin-TK peptide (biotin-labeled tyrosine kinase substrate peptide), 90 μM ATP was incubated at 23° C. for 90 minutes. 10 μL of stop solution containing 20 mM EDTA, 1.34 nM phosphorylated substrate antibody, and 100 nM streptavidin-labeled fluorescent molecule XL-665 was then added, incubated at 23° C. for 60 minutes; the signal was read with Envision;
3. The inhibition rate of the compound was calculated from the data read by the instrument, and the IC50 value was calculated using the mode 205 in XLFIT5 of IDBS.

plasma protein [1] = assay: Plasma protein binding rate (PPB) test, human plasma; assay type: in vitro ADME; settings: 2 μM, dialysis 37° C. 4 hours
Procedure: (§1) The protein binding rates of the test compound in the plasma of humans, SD rats and Beagle dogs were determined.
(§2) 796 μL of blank plasma from humans, SD rats and Beagle dogs (plasma purchased from BioreclamationIVT) were taken, 4 μL of working solution of the test compound (400 μM) or warfarin working solution (400 μM) was added and the final concentration of the test compound or warfarin was 2 μM. The sample was mixed thoroughly. The final concentration of organic phase DMSO was 0.5%; 50 μL of the plasma sample treated with the test compound or warfarin was pipetted into the sample receiving plate, and a corresponding volume of blank plasma or buffer was added immediately so that the final volume in each sample well was 100 μL, the volume ratio of plasma:dialysis buffer was 1:1; 400 μL of stop solution was added to these samples, and these samples were used as T0 samples for recovery and stability determination. To samples were stored at 2° C. to 8° C. for subsequent processing together with other dialyzed samples; 150 μL of the plasma sample treated with the test compound or warfarin was added into the dosing end of each dialysis hole, and 150 μL of blank dialysis buffer was added to the receiving end corresponding to the dialysis hole. Then the dialysis plate was sealed with gas-permeable membrane and placed in a humidified 5% CO2 incubator, and incubated at 37° C. with 100 rpm shaking for 4 hours. After the dialysis, 50 μL of the dialysis buffer sample and the dialysis plasma sample was transferred to a new sample receiving plate. […] All samples were analyzed by LC/MS/MS after protein precipitation, and the plasma protein unbound rate, binding rate and recovery rate was calculated according to the following formula: % unbound rate=100*free compound concentration at the membrane buffer side/total compound concentration at the membrane plasma side, % protein binding rate=100-% unbound rate, % recovery rate=100*(free compound concentration at the membrane buffer side+total compound concentration at the membrane plasma side)/total compound concentration before dialysis.

[2] = Metabolic stability (MMS) by human liver microsome; assay type: in vitro ADME; settings: liver microsomes, pH 7.4, 0.5 mg protein/mL, read-out: Intrinsic clearance by liver microsome, Human
Procedure: (§3) Determination of the metabolic stability of the test compound by human, rat and canine liver microsome.
(§4) Test compound (10 mM), testosterone (reference compound, 10 mM), diclofenac (reference compound, 10 mM), propafenone (reference compound, 10 mM).
(§5) 100 mM potassium phosphate buffer (pH 7.4).
(§6) Intermediate solution: 45 μL of DMSO was used (with 450 μL of 1:1 methanol/water) to dilute 5 μL of the test or reference compound.
(§7) Working solution: 450 μL of 100 mM potassium phosphate buffer was used to dilute the intermediate solution.
(§8) 1. β-Nicotinamide adenine dinucleotide phosphate, from Sigma, Cat. No. N0505.
(§9) 3. Isocitrate dehydrogenase, from Sigma, Cat. No. 12002.
(§10) Preparation of liver microsome solution (final concentration: 0.5 mg protein/mL)
(§11) Cold acetonitrile containing 100 ng/mL tolbutamide and 100 ng/mL labetalol was used as the internal standard.
(§12) 10 μL of the working solution of the test compound or reference compound was added to all plates (T0, T5, T10, T20, T30, T60, NCF60).
(§13) 680 μL of liver microsome solution was added to each well of 96-well plates, then 80 μL was added to each well of the plates, and the plates were placed at 37° C. for pre-incubation for approximately 10 minutes. […]
(§14) The half-life T/2 and the intrinsic clearance by liver microsome Clint(mic) were calculated by the following formulas: […]

plasma protein [3] = assay: Plasma protein binding rate (PPB) test, SD rat plasma; assay type: in vitro ADME; settings: 2 μM, dialysis 37° C. 4 hours
Procedure: as §1, §2

[4] = Metabolic stability (MMS) by rat liver microsome; assay type: in vitro ADME; settings: liver microsomes, pH 7.4, 0.5 mg protein/mL, read-out: Intrinsic clearance by liver microsome, Rat
Procedure: as §3, §4, §5, §6, §7, §8, §9, §10, §11, §12, §13, §14

CYP2C9 = molecular target: T2, CYP2C9 (Homo sapiens, UniProt P11712); assay: Cytochrome P450 isozyme inhibitory activity test, CYP2C9; assay type: in vitro ADME
T2 construct: from tissue; host or cells: human liver microsomes
T2 sequence (P11712 whole entry): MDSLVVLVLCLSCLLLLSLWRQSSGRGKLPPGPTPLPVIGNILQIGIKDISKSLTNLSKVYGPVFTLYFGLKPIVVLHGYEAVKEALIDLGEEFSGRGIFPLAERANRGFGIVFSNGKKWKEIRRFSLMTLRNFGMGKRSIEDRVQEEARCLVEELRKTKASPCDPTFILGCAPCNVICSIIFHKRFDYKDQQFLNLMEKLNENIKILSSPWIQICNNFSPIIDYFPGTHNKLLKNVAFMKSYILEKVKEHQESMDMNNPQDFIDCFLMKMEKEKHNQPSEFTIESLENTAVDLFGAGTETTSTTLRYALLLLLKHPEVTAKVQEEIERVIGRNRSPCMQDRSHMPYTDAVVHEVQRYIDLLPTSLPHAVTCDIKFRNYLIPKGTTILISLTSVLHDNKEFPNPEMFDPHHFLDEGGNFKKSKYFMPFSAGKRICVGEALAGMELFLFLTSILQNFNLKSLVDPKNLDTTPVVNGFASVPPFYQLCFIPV
Procedure: (§15) Determination of the inhibitory activity of the test compound on different human cytochrome P450 isozymes.
(§16) The test compound, standard inhibitor (100×final concentration), and a mixed substrate working solution were prepared; the microsome frozen in −80° C. refrigerator was thawed. […]

CYP2D6 = molecular target: T3, CYP2D6 (Homo sapiens, UniProt P10635); assay: Cytochrome P450 isozyme inhibitory activity test, CYP2D6; assay type: in vitro ADME; settings: human liver microsomes
T3 construct: from tissue; host or cells: human liver microsomes
T3 sequence (P10635 whole entry): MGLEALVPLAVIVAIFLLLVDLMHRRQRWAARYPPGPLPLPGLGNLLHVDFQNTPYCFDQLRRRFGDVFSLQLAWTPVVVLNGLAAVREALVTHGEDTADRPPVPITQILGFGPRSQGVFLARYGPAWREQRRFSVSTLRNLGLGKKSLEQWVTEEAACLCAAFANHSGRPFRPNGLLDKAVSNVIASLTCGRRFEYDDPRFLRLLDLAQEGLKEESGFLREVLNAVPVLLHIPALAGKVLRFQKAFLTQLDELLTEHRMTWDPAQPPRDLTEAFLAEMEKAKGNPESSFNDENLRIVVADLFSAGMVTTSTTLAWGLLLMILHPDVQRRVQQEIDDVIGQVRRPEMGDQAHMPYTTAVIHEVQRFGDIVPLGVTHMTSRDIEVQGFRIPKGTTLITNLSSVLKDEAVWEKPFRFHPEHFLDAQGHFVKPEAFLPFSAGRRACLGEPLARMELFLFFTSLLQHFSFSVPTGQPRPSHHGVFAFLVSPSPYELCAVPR
Procedure: as §15, §16

CYP3A4 = molecular target: T4, CYP3A4 (Homo sapiens, UniProt P08684); assay: Cytochrome P450 isozyme inhibitory activity test, CYP3A4; assay type: in vitro ADME; settings: human, human liver microsomes
T4 construct: from tissue; host or cells: human liver microsomes
T4 sequence (P08684 whole entry): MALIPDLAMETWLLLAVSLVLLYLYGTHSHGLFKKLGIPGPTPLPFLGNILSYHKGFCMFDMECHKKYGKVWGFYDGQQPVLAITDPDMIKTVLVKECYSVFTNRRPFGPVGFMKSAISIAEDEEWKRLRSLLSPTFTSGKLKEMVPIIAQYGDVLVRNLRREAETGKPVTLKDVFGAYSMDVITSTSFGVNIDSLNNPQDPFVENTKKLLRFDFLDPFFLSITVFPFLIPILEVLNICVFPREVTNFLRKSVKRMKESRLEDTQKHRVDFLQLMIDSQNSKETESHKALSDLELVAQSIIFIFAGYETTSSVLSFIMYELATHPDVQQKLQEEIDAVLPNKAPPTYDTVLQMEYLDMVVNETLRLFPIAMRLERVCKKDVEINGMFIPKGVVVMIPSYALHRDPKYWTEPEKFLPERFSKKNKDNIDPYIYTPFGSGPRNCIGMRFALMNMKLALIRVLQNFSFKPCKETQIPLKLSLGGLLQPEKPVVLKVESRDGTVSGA
Procedure: as §15
(§17) The test compound, standard inhibitor (100×final concentration), and a mixed substrate working solution were prepared; the microsome frozen in −80° C. refrigerator was thawed. 2 μL of the test compound and standard inhibitor solution was added to the corresponding wells, and at the same time 2 μL of the corresponding solvent was added to the non-inhibitor control wells (NIC) and blank control wells (Blank) wells; then 20 μL of mixed substrate solution was added to the corresponding wells, except for the Blank wells (20 μL of PB was added to the Blank wells); a human liver microsome solution was prepared (put back into the refrigerator immediately after using and marking the date), and then 158 μL of the human liver microsome solution was added to all wells; the above sample plate was placed in a 37° C. water bath for pre-incubation, then the coenzyme factor (NADPH) solution was prepared; 10 minutes later, 20 μL of the NADPH solution was added to all wells, and the sample plate was shaken well, placed in a 37° C. water bath and incubated for 10 minutes; at the corresponding time point, 400 μL of cold acetonitrile solution (internal standard: 200 ng/mL tolbutamide and labetalol) was added to terminate the reaction; the sample plate was evenly mixed, centrifuged at 4000 rpm for 20 minutes to precipitate proteins; 200 μL of the supernatant was added to 100 μL of water, shook well, and tested by LC/MS/MS.

CYP2C19 = molecular target: T5, CYP2C19 (Homo sapiens, UniProt P33261); assay: Cytochrome P450 isozyme inhibitory activity test, CYP2C19; assay type: in vitro ADME; settings: heading: Cytochrome P450 isozyme IC50, CYP2C19; human liver microsome
T5 construct: from tissue; host or cells: human liver microsomes
T5 sequence (P33261 whole entry): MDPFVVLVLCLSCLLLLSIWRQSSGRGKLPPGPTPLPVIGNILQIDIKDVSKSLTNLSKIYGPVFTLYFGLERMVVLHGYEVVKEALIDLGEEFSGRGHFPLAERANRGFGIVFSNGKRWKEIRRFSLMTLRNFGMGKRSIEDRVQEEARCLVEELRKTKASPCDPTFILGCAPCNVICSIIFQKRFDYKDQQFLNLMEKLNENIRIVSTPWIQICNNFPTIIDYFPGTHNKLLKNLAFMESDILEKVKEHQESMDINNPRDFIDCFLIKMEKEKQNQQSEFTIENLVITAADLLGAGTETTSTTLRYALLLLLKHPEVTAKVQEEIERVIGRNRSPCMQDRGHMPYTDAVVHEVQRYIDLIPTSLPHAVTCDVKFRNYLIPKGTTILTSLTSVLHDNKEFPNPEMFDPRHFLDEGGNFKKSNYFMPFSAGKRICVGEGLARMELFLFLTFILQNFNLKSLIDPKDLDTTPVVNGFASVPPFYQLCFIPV
Procedure: as §15, §17

Structure (SMILES): COCCN1C[C@@H](n2ccc(F)c2)[C@H](NC(=O)Nc2c(C)c(-c3cnc(C4(F)CNC4)nc3)nn2-c2ccccc2)C1 [Compound 8]
IC50 (TrkA): 0.00103 µM

Structure (SMILES): COCCN1C[C@@H](n2ccc(F)c2)[C@H](NC(=O)Nc2c(C)c(-c3cc4n(n3)CCC4)nn2-c2ccccc2)C1 [Compound 4]
IC50 (TrkA): 0.00305 µM

Structure (SMILES): COCCN1C[C@@H](n2ccc(F)c2)[C@H](NC(=O)Nc2c(C)c(-c3cnc4c(c3)COC4)nn2-c2ccccc2)C1 [Compound 5]
IC50 (TrkA): 0.00024 µM

Structure (SMILES): COCCN1C[C@@H](NC(=O)Nc2c(C)c(-c3cnc(C)nc3)nn2-c2ccccc2)[C@H](c2cccc(F)c2)C1 [Reference compound D1, reference compound]
Plasma protein unbound rate, Human plasma (plasma protein [1]): 13.6%
IC50 (CYP2C9; heading: Cytochrome P450 isozyme IC50, CYP2C9, human liver microsome): > 50 µM
CLint scaled [2]: 52.1 mL/min/kg
Plasma protein unbound rate, SD Rat plasma (plasma protein [3]): 9.6%
IC50 at 10 min (CYP2D6): 39.7 µM
IC50 at 10 min (CYP3A4): 37.1 µM
IC50 (CYP2C19): > 50 µM
CLint scaled [4]: 52.9 mL/min/kg

Second part, the molecule after the results:

Plasma protein unbound rate, Human plasma (plasma protein [1]): 15.3%
CLint scaled [2]: 54.6 mL/min/kg
Plasma protein unbound rate, SD Rat plasma (plasma protein [3]): 5.1%
CLint scaled [4]: 25.5 mL/min/kg
IC50 (TrkA): 0.00027 µM
Structure (SMILES): COCCN1C[C@@H](n2cc(F)c(F)c2)[C@H](NC(=O)Nc2c(C)c(-c3cnc4c(c3)CN(C)C4)nn2-c2ccccc2)C1 [Compound 2]

IC50 at 10 min (CYP2C9; human, human liver microsomes): 24.2 µM
IC50 at 10 min (CYP2D6): 28.5 µM
IC50 at 10 min (CYP3A4): 19.2 µM
IC50 (CYP2C19): > 50 µM
IC50 (TrkA): 0.00016 µM
Structure (SMILES): COCCN1C[C@@H](n2cc(F)c(F)c2)[C@H](NC(=O)Nc2c(C)c(-c3cnc4c(c3)COC4)nn2-c2ccccc2)C1 [Compound 1]

IC50 (TrkA): 0.00027 µM
Structure (SMILES): COCCN1C[C@@H](n2cc(F)c(F)c2)[C@H](NC(=O)Nc2c(C)c(-c3cnc(C4(F)COC4)nc3)nn2-c2ccccc2)C1 [Compound 6]
